Measured values as given in patent publication US20250319088A1, “DAPRODUSTAT FOR REDUCING FATIGUE IN A SUBJECT WITH ANEMIA ASSOCIATED WITH CHRONIC KIDNEY DISEASE” (GlaxoSmithKline Intellectual Property (No.2) Limited, priority 2021, published 2025).

Key:
[1] = tested on: non-dialysis patient with anaemia associated with chronic kidney disease; assay: SF-36 Vitality Domain score in 28 week randomized double blind placebo controlled clinical study; type: in vivo, human; conditions: for Adjusted mean SF-36 Vitality Change from Baseline at Week 28 (SE): 0-100 score; for adjusted mean treatment difference (CI) in SF-36 Vitality: dapro-placebo
Protocol: (§1) A 28 week randomized double blind placebo controlled clinical study in non-dialysis patient with anaemia associated with chronic kidney disease has been conducted. Participants were assessed for eligibility for inclusion in the study on the basis of the following (non-exhaustive) inclusion and exclusion criteria.
(§2) Enrolled participants were randomized 1:1 to receive either daprodustat or matching placebo tablets administered once daily.
(§3) The treatment doses for participants in both treatment arms were titrated based on haemoglobin concentration as assessed by HemoCue. Haemoglobin concentration by HemoCue is assessed on day 1, and at weeks 2, 4, 8, 12, 16, 20, 24 and 28. The available dose steps of daprodustat and placebo were 1 mg, 2 mg, 4 mg, 6, mg, 8 mg, 10 mg, 12 mg and 16 mg. Dose modifications for participants followed the dose adjustment algorithm to achieve and maintain haemoglobin concentration within the target range of 11.0 to 12.0 g/dL outlined in Table 2.
(§4) The Short form SF-36 questionnaire was completed by participants on day 1 and on weeks 8, 12 and 28, and the CKD-AQ questionnaire was completed by participants on week −2 (i.e. during screening period) and on day 1 and weeks 8, 12 and 28.
(§5) • Mean change in the SF-36 Vitality Domain score (0-100) between baseline and week 28. This was a principal secondary endpoint and the study was appropriately powered for this endpoint. • Mean change from baseline by domain and overall symptoms score on the CKD-AQ (the study was not powered for this secondary endpoint, so only nominal significance can be assessed).
(§6) For the endpoints of mean change in haemoglobin and SF-36 Vitality Domain, an analysis of covariance model was used including covariates of baseline level, treatment, and region. The model provided point estimate and two-sided 95% CI for the treatment effect, together with a one-sided p-value. Significance was determined if the one-sided p-value was less than 0.025. The analysis population for the haemoglobin and SF-36 Vitality Domain endpoints was the intent-to-treat population. The analysis population for the Chronic Kidney Disease Anemia Questionnaire Tired/Low Energy/Weak Domain endpoint was the on treatment population and analysis was based on a mixed model repeated measures model fitted from baseline up to Week 28 with factors for treatment, time, region, baseline value, baseline value by time, and treatment by time interactions.
For the endpoints of mean change in haemoglobin and SF-36 Vitality Domain by subgroup, a similar model to that described above was used, adding covariates for subgroup and subgroup by treatment interaction term. The analysis population for these endpoints was the intent-to-treat population.
For endpoints of difference in SF-36 Vitality domain response rate, a Cochran-Mantel-Haenszel chi-squared test was used adjusting for treatment, baseline level, and region, to make comparisons between the treatment groups. Significance was determined if the one-sided p-value was less than 0.025. The analysis population for these endpoints was the intent-to-treat population.

[2] = tested on: non-dialysis patient with anaemia associated with chronic kidney disease; assay: hsCRP levels by baseline hsCRP quartile in 28 week placebo controlled clinical study; type: in vivo, human
Protocol: as §1
In addition to analysis of the intention to treat population, several sub-group analyses were pre-specified including subgroups with baseline hsCRP quartiles of <0.9 mg/L, 0.9 to <2.6 mg/L, 2.60 to <6.60 mg/L and ≥6.60 mg/L.
The changes in hsCRP levels in each quartile are given below in Tables 5 to 8.

[3] = tested on: non-dialysis patient with anaemia associated with chronic kidney disease; assay: CKD-AQ Tired/Low Energy/Weak Domain score in 28 week placebo controlled clinical study; type: in vivo, human; conditions: on treatment population
Protocol: as §1, §2, §4, §5, §6
A simple linear transformation was used to recalibrate the items to a 0-100 scale as outlined in Tables 11 and 12. […]

[4] = tested on: non-dialysis patient with anaemia associated with chronic kidney disease; assay: Haemoglobin concentration change from baseline to evaluation period in 28 week placebo controlled clinical study; type: in vivo, human
Protocol: as §1, §2, §3
The primary objective of the trial was to compare the efficacy of daprodustat to placebo on mean change in haemoglobin concentration. The primary endpoint was the mean change in haemoglobin concentration between baseline (day 1) and the evaluation period (mean over week 24 to week 28 inclusive).
For the endpoints of mean change in haemoglobin and SF-36 Vitality Domain, an analysis of covariance model was used including covariates of baseline level, treatment, and region. The model provided point estimate and two-sided 95% CI for the treatment effect, together with a one-sided p-value. Significance was determined if the one-sided p-value was less than 0.025. The analysis population for the haemoglobin and SF-36 Vitality Domain endpoints was the intent-to-treat population. […]

[5] = tested on: patients with type 2 diabetes mellitus, non-dialysis dependent chronic kidney disease and anemia; conditions: at 25 weeks, cited from earlier work

With `O=C(O)CNC(=O)C1C(=O)N(C2CCCCC2)C(=O)N(C2CCCCC2)C1=O` [Daprodustat, N-((1,3-dicyclohexylhexahydro-2,4,6-trioxopyrimidin-5-yl)carbonyl)glycine] the “SF-36 vitality domain scores for daprodustat and placebo” value ([1]; at week 12) was “not distinguishable”, the “adjusted difference in response rate (dapro-placebo), ≥6.0 point SF-36 Vitality increase” value ([1]; baseline to week 28) was 0.13 (0.04, 0.22) and the “Baseline SF-36 Vitality Sub-score Mean (SD)” value ([1]; baseline, intention to treat population, includes imputed values) was 50.74 (21.175). The “Adjusted Mean Treatment Difference (dapro − placebo) in SF-36 Vitality change from baseline at week 28” value ([1]; intention to treat population) was 5.36, the “Adjusted mean SF-36 Vitality Change from Baseline at Week 28 (SE)” value ([1]; intention to treat population) was 7.29 (1.121) and the “Adjusted mean SF-36 Vitality Change from Baseline at Week 28 (SE)” value ([1]; intention to treat population, listed as daprodustat) was 7.29. The “participants with a ≥6.0 point difference from baseline to week 28 in the SF-36 Vitality Sub-score” value ([1]; responder rate, intention to treat population) was 58%, the “adjusted mean treatment difference (CI) in SF-36 Vitality” value (from here on “adjusted mean treatment difference (CI)”) ([1]; subgroup baseline hsCRP 0.9 to <2.6 mg/L) was 1.09 (−4.86, 7.04) and the “adjusted mean SF-36 Vitality Change” value ([1]; subgroup baseline hsCRP 0.9 to <2.6 mg/L, week 28) was 4.98. The “adjusted mean treatment difference (CI)” value ([1]; subgroup baseline hsCRP 2.60 to <6.60 mg/L) was 4.38 (−1.77, 10.53), the “adjusted mean SF-36 Vitality Change” value ([1]; subgroup baseline hsCRP 2.60 to <6.60 mg/L, week 28) was 7.92 and the “adjusted mean treatment difference (CI)” value ([1]; subgroup baseline hsCRP <0.9 mg/L) was 10.0 (3.53, 16.47). For the same molecule, the “adjusted mean SF-36 Vitality Change” value ([1]; subgroup baseline hsCRP <0.9 mg/L, week 28) was 9.84, the “adjusted mean treatment difference (CI)” value ([1]; subgroup baseline hsCRP ≥6.60 mg/L) was 7.71 (1.62, 13.80) and the “adjusted mean treatment difference (CI)” value ([1]; subgroup baseline hsCRP ≥6.60 mg/L, listed as daprodustat) was 7.71. For the same molecule, the “adjusted mean SF-36 Vitality Change” value ([1]; subgroup baseline hsCRP ≥6.60 mg/L, week 28) was 8.24, the “adjusted mean treatment difference in SF-36 Vitality domain subscore” value ([1]; subjects having baseline haemoglobin <9 g/dL) was 7.44 and the “adjusted mean treatment difference in SF-36 Vitality” value ([1]; subjects having baseline haemoglobin >11 g/dL, small number of subjects) was −7.13. The “adjusted mean treatment difference in SF-36 Vitality domain subscore” value ([1]; subjects having baseline haemoglobin ≥9 to <10 g/dL) was 5.25, the “adjusted mean treatment difference in SF-36 Vitality domain subscore” value ([1]; subjects having baseline haemoglobin ≥10 to ≤11 g/dL) was 6.01 and the “Week 28 SF-36 Vitality Sub-score Mean (SD)” value ([1]; week 28, intention to treat population, includes imputed values) was 58.40 (18.312). For the same molecule, the “Geometric mean hsCRP” value ([2]; baseline hsCRP 0.9-<2.60 mg/L, Baseline) was 1.46 mg/L, the “Geometric mean hsCRP” value ([2]; baseline hsCRP 0.9-<2.60 mg/L, Day 1) was 1.46 mg/L and the “Geometric mean hsCRP” value ([2]; baseline hsCRP 0.9-<2.60 mg/L, End of Treatment) was 2.55 mg/L. For the same molecule, the “Geometric mean hsCRP” value ([2]; baseline hsCRP 0.9-<2.60 mg/L, Week 28) was 2.55 mg/L, the “Geometric mean hsCRP” value ([2]; baseline hsCRP 2.60-<6.60 mg/L, Baseline) was 3.93 mg/L and the “Geometric mean hsCRP” value ([2]; baseline hsCRP 2.60-<6.60 mg/L, Day 1) was 3.93 mg/L. For the same molecule, the “Geometric mean hsCRP” value ([2]; baseline hsCRP 2.60-<6.60 mg/L, End of Treatment) was 3.83 mg/L, the “Geometric mean hsCRP” value ([2]; baseline hsCRP 2.60-<6.60 mg/L, Week 28) was 3.85 mg/L and the “Geometric mean hsCRP” value ([2]; baseline hsCRP <0.9 mg/L, Baseline) was 0.48 mg/L. The “Geometric mean hsCRP” value ([2]; baseline hsCRP <0.9 mg/L, Day 1) was 0.48 mg/L, the “Geometric mean hsCRP” value ([2]; baseline hsCRP <0.9 mg/L, End of Treatment) was 0.86 mg/L and the “Geometric mean hsCRP” value ([2]; baseline hsCRP <0.9 mg/L, Week 28) was 0.85 mg/L. For the same molecule, the “Geometric mean hsCRP” value ([2]; baseline hsCRP ≥6.60 mg/L, Baseline) was 16.96 mg/L, the “Geometric mean hsCRP” value ([2]; baseline hsCRP ≥6.60 mg/L, Day 1) was 16.79 mg/L and the “Geometric mean hsCRP” value ([2]; baseline hsCRP ≥6.60 mg/L, End of Treatment) was 8.92 mg/L. For the same molecule, the “Geometric mean hsCRP” value ([2]; baseline hsCRP ≥6.60 mg/L, Week 28) was 9.04 mg/L, the “change in hsCRP levels” value ([2]; subjects with high baseline hsCRP (≥6.60 mg/L), similar reductions in placebo group) was “large reductions in hsCRP levels” and the “Adjusted Mean Treatment Difference (dapro − placebo) on CKD-AQ Tired/Low Energy/Weak Domain” value ([3]; baseline to week 28) was 5.91. The “Adjusted mean change from baseline to week 28 on CKD-AQ Tired/Low Energy/Weak Domain (SE)” value [3] was 8.72 (1.086), the “Adjusted mean change from baseline to week 28 on CKD-AQ Tired/Low Energy/Weak Domain (SE)” value ([3]; listed as daprodustat) was 8.72 and the “haemoglobin concentration compared to placebo over the treatment period” value ([4]; one sided superiority p-value <0.0001) was “significantly increased haemoglobin concentration”. The “adjusted mean treatment difference in haemoglobin concentration” value ([4]; subjects having baseline haemoglobin >11 g/dL) was 0.76 g/dL and the “adjusted mean treatment difference in haemoglobin concentration” value ([4]; subjects having baseline hsCRP ≥6.60 mg/L) was 1.25 g/dL.
In the case of darbepoetin alfa, the “mean change in SF-36 Vitality domain” value ([5]; versus 4.2±19 placebo, P=0.196) is given as 5.3±20 and the “percentage of responders having a ≥5-point increase in SF-36 Vitality domain” value ([5]; versus 49% placebo, nominal P=0.027) is given as 54%.
